For the test, the system named is MX-1 breast xenograft, nude mice, tumor weight T/C. The test can be described thus: NCI In Vivo Anticancer Drug Screen. Data for tumor model Human Mammary Carcinoma MX-1 Xenograft (intrarenal inoculation) in NU/NU Swiss (nude) mice. The settings on record: endpoint: mean tumor weight change, higher = larger tumour. Put shortly:
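Activity is given as a ratio, with each measurement in the compound-treated arm divided by the matching measurement in vehicle-dosed controls. Tumour size or survival serves as the measured parameter.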
Background: A xenograft is tissue or cells of one species grown in another, often human tumour cells in immunodeficient mice.

[1] abbreviates: dose: 3.13 mg/kg/injection, schedule: Q01DX010 (sc), vehicle: saline.
The mark [2] stands for this setting: dose: 6.25 mg/kg/injection, schedule: Q01DX010 (sc), vehicle: saline.

17 compounds from PubChem BioAssay AID296 (DTP/NCI, 2004) can be followed below.

Several values for one entry are separate records, joined by “and”; a condition that tells them apart may be missing. Identical values can stand only once. Records with an inconclusive call do not appear.

Regarding `c1cc(NC2CCCCC2)ccc1CN1CCOCC1`, the T/C (dose: 50.0 mg/kg/injection, schedule: Q01DX010 (sc), vehicle: saline + Tween-80 + alcohol) is 66 % of control; the T/C (dose: 100.0 mg/kg/injection, schedule: Q01DX010 (sc), vehicle: saline + Tween-80 + alcohol) is 38 % of control; the T/C (dose: 200.0 mg/kg/injection, schedule: Q01DX010 (sc), vehicle: saline + Tween-80 + alcohol) is 81 % of control; the T/C (dose: 400.0 mg/kg/injection, schedule: Q01DX010 (sc), vehicle: saline + Tween-80 + alcohol) was 61 % of control.

Regarding `OCC1OC(n2cnc3cc(Cl)c(Cl)cc32)C(O)C1O` (stereo unspecified), the T/C (dose: 300.0 mg/kg/injection, schedule: Q04DX003 (sc), vehicle: saline with Tween-80) was 156 % of control; the T/C (dose: 600.0 mg/kg/injection, schedule: Q04DX003 (sc), vehicle: saline with Tween-80) was 114 % of control and 118 % of control; the T/C (dose: 1200.0 mg/kg/injection, schedule: Q04DX003 (sc), vehicle: saline with Tween-80) is 114 % of control; the T/C (dose: 2400.0 mg/kg/injection, schedule: Q04DX003 (sc), vehicle: saline with Tween-80) is 66 % of control.

As to `COc1cccc2c1C(=O)c1c(O)c3c(c(O)c1C2=O)C[C@@](O)(/C(C)=N/NC(=O)c1cccc([N+](=O)[O-])c1)C[C@@H]3OC1CC(N)C(O)C(C)O1` (stereo partly specified), the T/C by setting is: (dose: 4.0 mg/kg/injection, schedule: Q01DX010 (sc), vehicle: water) 89 % of control; (dose: 8.0 mg/kg/injection, schedule: Q01DX010 (sc), vehicle: water) 43 % of control; (dose: 16.0 mg/kg/injection, schedule: Q01DX010 (sc), vehicle: water) 104 % of control.

With `NC(=O)c1[nH]nc(C2OC(CO)C(O)C2O)c1O` (stereo unspecified), the T/C by setting is: (dose: 2.5 mg/kg/injection, schedule: Q04DX003 (sc), vehicle: saline) 111 % of control; (dose: 20.0 mg/kg/injection, schedule: Q04DX003 (sc), vehicle: saline) 68 % of control.

Take `CN(C)CCCNc1c2ccccc2nc2cccc([N+](=O)[O-])c12`: the T/C (dose: 0.37 mg/kg/injection, schedule: Q04DX003 (sc), vehicle: saline) was 78 % of control.

Turning to `C=C(NC(=O)C(=C)NC(=O)c1csc(C2=NC3c4csc(n4)C4NC(=O)c5csc(n5)C(C(C)(O)C(C)O)NC(=O)C5CSC(=N5)/C(=C/C)NC(=O)C(C(C)O)NC(=O)c5csc(n5)C3(CC2)NC(=O)C(C)NC(=O)C(=C)NC(=O)C(=C)NC(=O)C(C(C)C)NC2C=Cc3c(C(C)O)cc(nc3C2O)C(=O)OC4C)n1)C(N)=O` (stereo unspecified), the T/C is, setting by setting: (dose: 187.5 mg/kg/injection, schedule: Q04DX003 (sc), vehicle: suspension in saline) 123 % of control; (dose: 375.0 mg/kg/injection, schedule: Q04DX003 (sc), vehicle: suspension in saline) 98 % of control; (dose: 750.0 mg/kg/injection, schedule: Q04DX003 (sc), vehicle: suspension in saline) 105 % of control; (dose: 1500.0 mg/kg/injection, schedule: Q04DX003 (sc), vehicle: suspension in saline) 152 % of control.

Consider `COc1cc([C@@H]2c3cc4c(c(O)c3C[C@H]3COC(=O)[C@@H]32)OCO4)cc(OC)c1O`, for which the T/C (dose: 0.5 mg/kg/injection, schedule: Q01DX010 (sc), vehicle: saline) was 121 % of control; the T/C (dose: 1.0 mg/kg/injection, schedule: Q01DX010 (sc), vehicle: saline) is 114 % of control; the T/C (dose: 2.0 mg/kg/injection, schedule: Q01DX010 (sc), vehicle: saline) was 87 % of control; the T/C under setting [1] is 104 % of control; the T/C (dose: 4.0 mg/kg/injection, schedule: Q01DX010 (sc), vehicle: saline) was 98 % of control; the T/C under setting [2] is 34 % of control.

For `C[n+]1c2cc(N)ccc2cc2ccc(N)cc21`, the T/C runs as follows: (dose: 1.56 mg/kg/injection, schedule: Q01DX010 (sc), vehicle: saline) 79 % of control; under setting [1], 66 % of control; under setting [2], 100 % of control.

Consider `Nc1ncnc2c1ncn2C1OC(CO)C(O)C1O` (stereo unspecified), for which the T/C (dose: 38.0 mg/kg/injection, schedule: Q04DX003 (sc), vehicle: saline) is 84 % of control; the T/C (dose: 100.0 mg/kg/injection, schedule: Q04DX003 (sc), vehicle: saline) is 120 % of control; the T/C (dose: 200.0 mg/kg/injection, schedule: Q04DX003 (sc), vehicle: saline with Tween-80) was 100 % of control; the T/C (dose: 200.0 mg/kg/injection, schedule: Q04DX003 (sc), vehicle: saline) was 72 % of control and 85 % of control; the T/C (dose: 400.0 mg/kg/injection, schedule: Q04DX003 (sc), vehicle: saline with Tween-80) is 84 % of control; the T/C (dose: 400.0 mg/kg/injection, schedule: Q04DX003 (sc), vehicle: saline) is 91 % of control. Further, the T/C was 217 % of control (dose: 800.0 mg/kg/injection, schedule: Q04DX003 (sc), vehicle: saline with Tween-80); 104 % of control (dose: 1600.0 mg/kg/injection, schedule: Q04DX003 (sc), vehicle: saline with Tween-80); 52 % of control (dose: 1600.0 mg/kg/injection, schedule: Q04DX003 (sc), vehicle: saline).

For `C1CC[N-]CC1.[Cl][Pt+2][Cl].[NH-]C1CC1`, the T/C was 60 % of control (dose: 25.0 mg/kg/injection, schedule: Q04DX003 (sc), vehicle: water); 34 % of control and 55 % of control (dose: 50.0 mg/kg/injection, schedule: Q04DX003 (sc), vehicle: Klucel (hydroxypropylcellulose) (HPC)); 11 % of control (dose: 50.0 mg/kg/injection, schedule: Q04DX003 (sc), vehicle: water); -83 % of control (dose: 100.0 mg/kg/injection, schedule: Q04DX003 (sc), vehicle: water).

For the compound `Cc1cc(NS(=O)(=O)c2ccc(N=Nc3cc(N=Nc4ccc(S(=O)(=O)Nc5cc(C)nc(C)n5)cc4)c4c(NC(=O)C(Cl)Cl)cccc4c3OC(=O)C(Cl)Cl)cc2)nc(C)n1` (tested in a mixture with another compound), the T/C (dose: 2400.0 mg/kg/injection, schedule: Q04DX003 (sc), vehicle: suspension in saline) was 112 % of control.

Consider `C=C[Si]12OCCN(CCO1)CCO2`, for which the T/C is 87 % of control (dose: 300.0 mg/kg/injection, schedule: Q04DX003 (sc), vehicle: Klucel (hydroxypropylcellulose) (HPC)); 79 % of control (dose: 600.0 mg/kg/injection, schedule: Q04DX003 (sc), vehicle: Klucel (hydroxypropylcellulose) (HPC)); 106 % of control (dose: 1200.0 mg/kg/injection, schedule: Q04DX003 (sc), vehicle: Klucel (hydroxypropylcellulose) (HPC)); 89 % of control (dose: 2400.0 mg/kg/injection, schedule: Q04DX003 (sc), vehicle: Klucel (hydroxypropylcellulose) (HPC)).

For `Cc1ccccc1CN1C2=NCCN2C(=O)C2=C1CCN(S(=O)(=O)c1ccc(Cl)c(S(N)(=O)=O)c1)C2`, the T/C was 59 % of control (dose: 300.0 mg/kg/injection, schedule: Q04DX003 (sc), vehicle: saline); 122 % of control (dose: 600.0 mg/kg/injection, schedule: Q04DX003 (sc), vehicle: saline); 109 % of control (dose: 1200.0 mg/kg/injection, schedule: Q04DX003 (sc), vehicle: saline).

With `COc1cc2c(c(OC)c1OC)-c1c(cc3c(c1OC)OCO3)CC(C)C(C)(O)C2OC(=O)c1ccccc1` (stereo unspecified), the T/C reads like this: (dose: 300.0 mg/kg/injection, schedule: Q04DX003 (sc), vehicle: saline + alcohol) 68 % of control; (dose: 600.0 mg/kg/injection, schedule: Q04DX003 (sc), vehicle: saline + alcohol) 82 % of control; (dose: 1200.0 mg/kg/injection, schedule: Q04DX003 (sc), vehicle: saline + alcohol) 79 % of control; (dose: 2400.0 mg/kg/injection, schedule: Q04DX003 (sc), vehicle: saline + alcohol) 88 % of control.

As for `CC1(C)CC23C4COC(=O)C2CCC1C3CC4=O` (stereo unspecified), the T/C reads like this: (dose: 300.0 mg/kg/injection, schedule: Q04DX003 (sc), vehicle: DMSO) 108 % of control; (dose: 600.0 mg/kg/injection, schedule: Q04DX003 (sc), vehicle: DMSO) 82 % of control; (dose: 1200.0 mg/kg/injection, schedule: Q04DX003 (sc), vehicle: DMSO) 104 % of control; (dose: 2400.0 mg/kg/injection, schedule: Q04DX003 (sc), vehicle: DMSO) 74 % of control.

In the case of `C=CCNc1ccc(C)cc1`, the T/C (dose: 25.0 mg/kg/injection, schedule: Q01DX010 (sc), vehicle: Klucel (hydroxypropylcellulose) (HPC)) is 97 % of control; the T/C (dose: 50.0 mg/kg/injection, schedule: Q01DX010 (sc), vehicle: Klucel (hydroxypropylcellulose) (HPC)) was 69 % of control and 70 % of control; the T/C (dose: 200.0 mg/kg/injection, schedule: Q01DX010 (sc), vehicle: Klucel (hydroxypropylcellulose) (HPC)) is 70 % of control and 76 % of control; the T/C (dose: 400.0 mg/kg/injection, schedule: Q01DX010 (sc), vehicle: Klucel (hydroxypropylcellulose) (HPC)) was 16 % of control.

For `Nc1ncnc2c1nnn2C1OC(CO)C(O)C1O` (stereo unspecified), the T/C (dose: 18.75 mg/kg/injection, schedule: Q04DX003 (sc), vehicle: Klucel (hydroxypropylcellulose) (HPC)) was 76 % of control and 80 % of control.
